Reference: patent US5472949A, “N^4 -(substituted-oxycarbonyl)-5'-deoxy-5-fluorocytidine compounds, compositions and methods of using same” (Hoffmann-La Roche Inc., priority 1992, dated 1995)
Where two headings read alike, the source gives them in different places. Each block holds one molecule with its values, some of them ahead of it.

Columns and labels:
[1] = system: CXF280 Human Colon Carcinoma; assay: Antitumor testing against human colon cancer xenograft CXF280; type: in vivo, BALB/c nu/nu mice; design: key to Fecal observation: N: normal feces; L: loose passage; key to % Growth inhibition: NE: Not Effective; details: for inhibition in vivo at 1 mmol/kg/day: Exp. 1, 1.0 mmol/kg/day x 21, oral
Method: CXF280 tumor (about 2×2 mm piece) was implanted subcutaneously into BALB/c nu/nu mice (21-22 g) on day 0. When tumor volume became 100 mm^3 on day around 14, the compounds of the invention were orally administered daily for 3 weeks. At one day after the last treatment, tumor volume was calculated.
The percent inhibition of tumor growth given in Table 3 above was calculated from the formula:
% Inhibition ={1-(T-V0)/(C-V0)}×100
V0 =volume of tumor before treatment was started, T=volume of the tumors from the treated group, C=volume of the tumor from the control group.

[2] = Pharmacokinetic profiles in monkeys (plasma 5'-DFUR after oral administration); type: in vivo; details: cynomolgous monkeys, metabolite 5'-DFUR in plasma
Method: The compounds of formula (I) were orally administered into groups of 2 to 5 cynomolgous monkeys (3-4 kg). At various times after the administration, plasma was taken for determination of blood concentrations of intact molecules and their active metabolite 5'-DFUR. Metabolites in the plasma were separated by HPLC and their concentrations were calculated.

monkey liver acylamidase = assay: Susceptibility to monkey liver acylamidase (crude liver extract, 5'-DFCR formed by HPLC); type: in vitro ADME; details: tetrahydrouridine 0.4 mM, 37° C., 60 min
Method: (§1) The N^4 -(substituted-oxycarbonyl)-5'-DFCRs of the invention were incubated with crude extracts of monkey and human liver in the presence of an inhibitor of cytidine deaminase, tetrahydrouridine (0.4 mM) at 37° C. for 60 min. Thereafter, the product 5'-DFCR was separated by HPLC and the enzyme susceptibility was calculated from the amount of the product.

human liver acylamidase = assay: Susceptibility to human liver acylamidase (crude liver extract, 5'-DFCR formed by HPLC); type: in vitro ADME; details: tetrahydrouridine 0.4 mM, 37° C., 60 min
Method: as §1

[3] = Toxicity (LD50), oral administration daily for 21 days in mice; details: mouse, in vivo
Method: The toxicity (LD50) of the representative compounds (Example 13,14, and 17) of the present invention was examined by oral administration daily for 21 days in mice. The representative LD50 values obtained from the experiments were more than 500 mg/kg/day.

[4] = Exp. 2, 0.089 mmol/kg/day x 21, oral
[5] = Mus musculus, po, Exp. 1, 0.13 mmol/kg/day x 21, oral, read-out: % Growth inhibition
[6] = Mus musculus, po, Exp. 2, 0.13 mmol/kg/day x 21, oral, read-out: % Growth inhibition
[7] = Exp. 2, 2.25 mmol/kg/day x 21, oral
[8] = Mus musculus, po, Exp. 2, 0.3 mmol/kg/day x 21, oral, read-out: % Growth inhibition
[9] = Mus musculus, po, Exp. 2, 0.67 mmol/kg/day x 21, oral, read-out: % Growth inhibition
[10] = Mus musculus, po, Exp. 2, 1.5 mmol/kg/day x 21, oral, read-out: % Growth inhibition
[11] = Mus musculus, po, Exp. 2, 2.25 mmol/kg/day x 21, oral, read-out: % Growth inhibition
[12] = Exp. 1, 1.5 mmol/kg/day x 21, oral
[13] = Mus musculus, po, Exp. 1, 0.3 mmol/kg/day x 21, oral, read-out: % Growth inhibition
[14] = Mus musculus, po, Exp. 1, 0.67 mmol/kg/day x 21, oral, read-out: % Growth inhibition
[15] = Mus musculus, po, read-out: % Growth inhibition
[16] = Mus musculus, po, Exp. 1, 1.5 mmol/kg/day x 21, oral, read-out: % Growth inhibition
[17] = Exp. 2, 1.5 mmol/kg/day x 21, oral

Structure (SMILES): O=c1[nH]cc(F)c(=O)[nH]1 [Example 5-FU, 5-fluorouracil, reference compound]
Fecal observation ([1]; Exp. 1, 0.089 mmol/kg/day x 21, oral): N
Fecal observation ([1]; Exp. 1, 0.13 mmol/kg/day x 21, oral): N
Fecal observation ([1]; Exp. 1, 0.2 mmol/kg/day x 21, oral): L
% Growth inhibition [1, 4]: NE
Fecal observation [1, 4]: N
Fecal observation ([1]; Exp. 2, 0.13 mmol/kg/day x 21, oral): N
Fecal observation ([1]; Exp. 2, 0.2 mmol/kg/day x 21, oral): L
inhibition in vivo at 0.089 mmol/kg/day ([1]; Mus musculus, po, Exp. 1, 0.089 mmol/kg/day x 21, oral, read-out: % Growth inhibition): 28%
inhibition in vivo at 0.13 mmol/kg/day [1, 5]: 59%
inhibition in vivo at 0.2 mmol/kg/day ([1]; Mus musculus, po, Exp. 1, 0.2 mmol/kg/day x 21, oral, read-out: % Growth inhibition): 79%
inhibition in vivo at 0.13 mmol/kg/day [1, 6]: 20%
inhibition in vivo at 0.2 mmol/kg/day ([1]; Mus musculus, po, Exp. 2, 0.2 mmol/kg/day x 21, oral, read-out: % Growth inhibition): 58%

Structure (SMILES): CCCCOC(=O)Nc1nc(=O)n([C@@H]2O[C@H](C)[C@@H](O)[C@H]2O)cc1F [Example 11, N^4-(butoxycarbonyl)-5'-deoxy-5-fluorocytidine]
Fecal observation [1, 7]: N
inhibition in vivo at 0.13 mmol/kg/day [1, 6]: 46%
inhibition in vivo at 0.3 mmol/kg/day [1, 8]: 72%
inhibition in vivo at 0.67 mmol/kg/day [1, 9]: 84%
inhibition in vivo at 1.5 mmol/kg/day [1, 10]: 95%
inhibition in vivo at 2.25 mmol/kg/day [1, 11]: 100%
Acylamidase activity, Monkey Liver (monkey liver acylamidase): 20 nmol/mg protein/hr
Plasma 5'-DFUR AUC [2]: 2.06 µg·h/mL
Acylamidase activity, Human Liver (human liver acylamidase): 71 nmol/mg protein/hr

Structure (SMILES): CC(C)CCOC(=O)Nc1nc(=O)n([C@@H]2O[C@H](C)[C@@H](O)[C@H]2O)cc1F [Example 14, 5'-deoxy-5-fluoro-N^4-(isopentyloxycarbonyl)cytidine]
Fecal observation [1, 17]: N
Fecal observation [1, 7]: N
inhibition in vivo at 0.13 mmol/kg/day [1, 6]: 68%
inhibition in vivo at 0.3 mmol/kg/day [1, 8]: 68%
inhibition in vivo at 0.67 mmol/kg/day [1, 9]: 85%
inhibition in vivo at 1.5 mmol/kg/day [1, 10]: 94%
inhibition in vivo at 2.25 mmol/kg/day [1, 11]: 100%
Acylamidase activity, Monkey Liver (monkey liver acylamidase): 32 nmol/mg protein/hr
Plasma 5'-DFUR AUC [2]: 2.40 µg·h/mL
LD50 at 504 h [3]: > 500 mg/kg
Acylamidase activity, Human Liver (human liver acylamidase): 74 nmol/mg protein/hr

Structure (SMILES): CCC(CC)COC(=O)Nc1nc(=O)n([C@@H]2O[C@H](C)[C@@H](O)[C@H]2O)cc1F [Example 15, 5'-deoxy-N^4-[(2-ethylbutoxy)carbonyl]-5-fluorocytidine]
Acylamidase activity, Monkey Liver (monkey liver acylamidase): 23 nmol/mg protein/hr
Plasma 5'-DFUR AUC [2]: 2.89 µg·h/mL
Acylamidase activity, Human Liver (human liver acylamidase): 210 nmol/mg protein/hr

Structure (SMILES): C[C@H]1O[C@@H](n2cc(F)c(NC(=O)OCCc3ccccc3)nc2=O)[C@H](O)[C@@H]1O [Example 17, 5'-deoxy-5-fluoro-N^4-[(2-phenylethoxy)carbonyl]cytidine]
Acylamidase activity, Monkey Liver (monkey liver acylamidase): 22 nmol/mg protein/hr
Plasma 5'-DFUR AUC [2]: 2.66 µg·h/mL
LD50 at 504 h [3]: > 500 mg/kg
Acylamidase activity, Human Liver (human liver acylamidase): 160 nmol/mg protein/hr

Structure (SMILES): CC(C)COC(=O)Nc1nc(=O)n([C@@H]2O[C@H](C)[C@@H](O)[C@H]2O)cc1F [Example 24, 5'-deoxy-5-fluoro-N^4-(isobutoxycarbonyl)cytidine]
Fecal observation [1, 12]: N
inhibition in vivo at 0.13 mmol/kg/day [1, 5]: 37%
inhibition in vivo at 0.3 mmol/kg/day [1, 13]: 64%
inhibition in vivo at 0.67 mmol/kg/day [1, 14]: 75%
inhibition in vivo at 1 mmol/kg/day [1, 15]: 83%
inhibition in vivo at 1.5 mmol/kg/day [1, 16]: 89%
Acylamidase activity, Monkey Liver (monkey liver acylamidase): 18 nmol/mg protein/hr
Acylamidase activity, Human Liver (human liver acylamidase): 64 nmol/mg protein/hr

Structure (SMILES): C[C@H]1O[C@@H](n2cc(F)c(NC(=O)OCCC(C)(C)C)nc2=O)[C@H](O)[C@@H]1O [Example 29, 5'-Deoxy-N^4-[(3,3-dimethylbutoxy)carbonyl]-5-fluorocytidine]
Acylamidase activity, Monkey Liver (monkey liver acylamidase): 22 nmol/mg protein/hr
Plasma 5'-DFUR AUC [2]: 2.09 µg·h/mL
Acylamidase activity, Human Liver (human liver acylamidase): 50 nmol/mg protein/hr

The next lines start with results.

Plasma 5'-DFUR AUC [2]: 2.03 µg·h/mL
Structure (SMILES): CCCOC(=O)Nc1nc(=O)n([C@@H]2O[C@H](C)[C@@H](O)[C@H]2O)cc1F [Example 10, 5'-deoxy-5-fluoro-N^4-(propoxycarbonyl)cytidine]
Fecal observation [1, 7]: N
inhibition in vivo at 0.13 mmol/kg/day [1, 6]: 39%
inhibition in vivo at 0.3 mmol/kg/day [1, 8]: 56%
inhibition in vivo at 0.67 mmol/kg/day [1, 9]: 75%
inhibition in vivo at 1.5 mmol/kg/day [1, 10]: 86%
inhibition in vivo at 2.25 mmol/kg/day [1, 11]: 93%

Acylamidase activity, Monkey Liver (monkey liver acylamidase): 29 nmol/mg protein/hr
Plasma 5'-DFUR AUC [2]: 2.90 µg·h/mL
Acylamidase activity, Human Liver (human liver acylamidase): 190 nmol/mg protein/hr
Structure (SMILES): CCCCCOC(=O)Nc1nc(=O)n([C@@H]2O[C@H](C)[C@@H](O)[C@H]2O)cc1F [Example 12, 5'-deoxy-5-fluoro-N^4-(pentyloxycarbonyl)cytidine]
Fecal observation [1, 12]: N
inhibition in vivo at 0.13 mmol/kg/day [1, 5]: 68%
inhibition in vivo at 0.3 mmol/kg/day [1, 13]: 69%
inhibition in vivo at 0.67 mmol/kg/day [1, 14]: 86%
inhibition in vivo at 1 mmol/kg/day [1, 15]: 86%
inhibition in vivo at 1.5 mmol/kg/day [1, 16]: 96%

Acylamidase activity, Monkey Liver (monkey liver acylamidase): 33 nmol/mg protein/hr
Plasma 5'-DFUR AUC [2]: 2.52 µg·h/mL
Acylamidase activity, Human Liver (human liver acylamidase): 210 nmol/mg protein/hr
Structure (SMILES): C[C@H]1O[C@@H](n2cc(F)c(NC(=O)OCC3CCCCC3)nc2=O)[C@H](O)[C@@H]1O [Example 16, N^4-[(cyclohexylmethoxy)carbonyl]-5'-deoxy-5-fluorocytidine]

Acylamidase activity, Monkey Liver (monkey liver acylamidase): 19 nmol/mg protein/hr
Acylamidase activity, Human Liver (human liver acylamidase): 320 nmol/mg protein/hr
Structure (SMILES): C[C@H]1O[C@@H](n2cc(F)c(NC(=O)OCCC3CCCCC3)nc2=O)[C@H](O)[C@@H]1O [Example 20, N^4-[(2-cyclohexylethoxy)carbonyl]-5'-deoxy-5-fluorocytidine]

Acylamidase activity, Monkey Liver (monkey liver acylamidase): 26 nmol/mg protein/hr
Acylamidase activity, Human Liver (human liver acylamidase): 82 nmol/mg protein/hr
Structure (SMILES): C[C@H]1O[C@@H](n2cc(F)c(NC(=O)OCCCC3CCCCC3)nc2=O)[C@H](O)[C@@H]1O [Example 21, N^4-[(3-cyclohexylpropyl)oxycarbonyl]-5'-deoxy-5-fluorocytidine]

Acylamidase activity, Monkey Liver (monkey liver acylamidase): 43 nmol/mg protein/hr
Acylamidase activity, Human Liver (human liver acylamidase): 110 nmol/mg protein/hr
Structure (SMILES): C[C@H]1O[C@@H](n2cc(F)c(NC(=O)OCCCc3ccccc3)nc2=O)[C@H](O)[C@@H]1O [Example 22, 5'-deoxy-5-fluoro-N^4-[(3-phenylpropyl)oxycarbonyl]cytidine]

Acylamidase activity, Monkey Liver (monkey liver acylamidase): < 13 nmol/mg protein/hr
Acylamidase activity, Human Liver (human liver acylamidase): 160 nmol/mg protein/hr
Structure (SMILES): CCCC(CCC)COC(=O)Nc1nc(=O)n([C@@H]2O[C@H](C)[C@@H](O)[C@H]2O)cc1F [Example 25, 5'-deoxy-5-fluoro-N^4-[(2-propylpentyl)oxycarbonyl]cytidine]

Acylamidase activity, Monkey Liver (monkey liver acylamidase): 20 nmol/mg protein/hr
Acylamidase activity, Human Liver (human liver acylamidase): 560 nmol/mg protein/hr
Structure (SMILES): CCCCC(CC)COC(=O)Nc1nc(=O)n([C@@H]2O[C@H](C)[C@@H](O)[C@H]2O)cc1F (stereo partly shown) [Example 26, 5'-deoxy-N^4-[(2-ethylhexyl)oxycarbonyl]-5-fluorocytidine]

Acylamidase activity, Monkey Liver (monkey liver acylamidase): 59 nmol/mg protein/hr
Acylamidase activity, Human Liver (human liver acylamidase): 110 nmol/mg protein/hr
Structure (SMILES): CCCCCCCOC(=O)Nc1nc(=O)n([C@@H]2O[C@H](C)[C@@H](O)[C@H]2O)cc1F [Example 27, 5'-deoxy-5-fluoro-N^4-(heptyloxycarbonyl)cytidine]
Fecal observation [1, 17]: N
Fecal observation [1, 7]: N
inhibition in vivo at 0.13 mmol/kg/day [1, 6]: 26%
inhibition in vivo at 0.3 mmol/kg/day [1, 8]: 72%
inhibition in vivo at 0.67 mmol/kg/day [1, 9]: 84%
inhibition in vivo at 1.5 mmol/kg/day [1, 10]: 94%
inhibition in vivo at 2.25 mmol/kg/day [1, 11]: 103%

Acylamidase activity, Monkey Liver (monkey liver acylamidase): 25 nmol/mg protein/hr
Plasma 5'-DFUR AUC [2]: 1.40 µg·h/mL
Acylamidase activity, Human Liver (human liver acylamidase): 52 nmol/mg protein/hr
Structure (SMILES): C[C@H]1O[C@@H](n2cc(F)c(NC(=O)OCC(C)(C)C)nc2=O)[C@H](O)[C@@H]1O [Example 28, 5'-deoxy-5-fluoro-N^4-(neopentyloxycarbonyl)cytidine]
